Test system: mutated EGFP (mEGFP) in BY-2 protoplasts
Test: meGFP restoration in BY-2 protoplasts by oligonucleotide-mediated targeted gene repair (Example 3)
Format: cell-based, tobacco
Source text: A tobacco Bright Yellow 2 cell suspension containing a non-functional EGFP gene was produced by introducing a point mutation in the chromophore region of the protein resulting in the formation of a premature stop codon. This line is used as reporter system to test the influence of various parameters on the repair of the EGFP gene by oligonucleotide-mediated targeted gene repair.
Five mL of a 7 d-old tobacco Bright Yellow 2 (BY-2) cell suspension culture weekly maintained in BY-2 culture medium (Nagata et al. 1999 Method Cell Sci) are transferred to a 50 mL Erlenmeyer flask containing 45 mL of BY-2 culture medium supplemented with 2 mM hydroxyurea. […] Live protoplasts are harvested and their density evaluated using a haemocytometer. […]
Tobacco protoplasts transfection is performed as for tomato protoplasts. […] To culture medium contained (per liter, pH 5.7) 950 mg KNO3, 825 mg NH4NO3, 220 mg CaCl2.2H2O, 185 mg MgSO4.7H2O, 85 mg KH2PO4, 27.85 mg FeSO4.7H2O, 37.25 mg Na2EDTA.2H2O, the micro-nutrients according to Heller's medium (Heller, R. 1953 Ann Sci Nat Bot Biol Veg), vitamins according to Morel and Wetmore's medium (Morel, G. and R. H. Wetmore 1951 Amer. J. Bot.), 2% (w/v) sucrose, 3 mg naphthalene acetic acid, 1 mg 6-benzylaminopurine and a quantity of mannitol to bring the osmolality to 540 mOsm·kg^−1 and transferred to a 35 mm Petri dish. […]

With “repairing oligonucleotide: SEQ ID NO 8, T*G*A*A*CAGCTCCTCGCCCTTGC*T*C*A*C, phosphorothioate ends, one mismatch with the targeted sequence (DNA TGAACAGCTCCTCGCCCTTGCTCAC; DNA, linkages s4 o16 s4 (s phosphorothioate, o phosphodiester), methylation of C not given here)” the “GFP positive protoplasts after 24 hours (/10^6)” value (label = Day 1 / Day 2 treatment, oligonucleotide transfected at Day 2, dichlobenil 2 mg·L^−1 overnight, 2 mM hydroxyurea) was 0 /10^6 and the “GFP positive protoplasts after 24 hours (/10^6)” value (oligonucleotide transfected at Day 1, nothing at Day 2, 2 mM hydroxyurea) was 0 /10^6.
